Test results from patent US7833795B2, “Assessment of cardiovascular risk using isoprostane biomarkers and COX-2 selective inhibitors” (The Trustees of the University of Pennsylvania, priority 2004, dated 2010).

Tests used:
Assay type in all cases: in vivo, rat
Male Fisher 344 rats [1] = assay: Plasma protein carbonyls
Method: (§1) Animals and treatment protocol: Male Fisher 344 rats (260-280 g) obtained from Charles River Laboratories (Raleigh, N.C.) were used in all experiments. The animals were housed three to a cage. Autoclaved hardwood bedding was used in solid-bottom polycarbonate cages with filter tops. Animal rooms were maintained at 20-25° C. with 35-70% relative humidity with alternating 12-hour light and dark cycles. The rats had free access to deionized, reverse-osmosis-treated water and received autoclaved NIH 31 rodent chow (Zeigler Bros., Gardners, Pa.) ad libitum. For all experiments, rats were fasted overnight and then administered intraperitoneal injections of carbon tetrachloride in canola oil. Control rats received an equal volume of canola oil. Fasting continued throughout the experiment. Rats were anesthetized with Nembutal (0.1 ml/100 g body weight) and 5 ml blood was removed from the dorsal aorta proximal to its bifurcation into the common iliac arteries.
(§2) Carbon tetrachloride (CCL4) treatment: Animals from each of the three dose groups (Control-canola oil, 120 mg/kg CCl4 i.p. and 1200 mg/kg CCl4 i.p.) were investigated at three time points (2, 7, and 16 hours after CCl4 injection). Indomethacin-pretreated rats were also investigated at the same three time points, and the meclofenamic acid-pretreated rats were investigated at one time point (7 hours). Each group consisted of five rats for each analysis, except the meclofenamic acid pretreatment group which consisted of six rats. Animal treatment, sample preparation, assessment of liver histology and serum enzyme activities are described elsewhere (Kadiiska et al., 2000, Free Radic. Biol. Med. 28: 838-845; Jackson, 1989, J. Pharmacol. Exp. Ther. 250: 9-21) and were carried out at NIEHS, Research Triangle Park, N.C.
Plasma sample preparation: Blood (5 ml) was drawn through single draw Vacutainer® needles (21 Gauge) into open Vacutainer® blood collection tubes containing heparin. The tubes were gently inverted 2-3 times for mixing and immediately placed on ice. Blood was centrifuged (2,000 rpm for 10 minutes at 4° C.) no more than 30 minutes after collection, and the plasma was collected, frozen on dry ice and stored at −70° C.
Several different assays for oxidation products of proteins were employed. The protein carbonyl content (Agarwal and Sohal, 1995, Mech. Ageing Develop. 85: 55-63), indicative of plasma protein oxidative damage, was measured according to the method of Levine et al. (Levine et al., 1994, Meth. Enzymol. 233: 346-357), based on derivatization of carbonyls with tritiated borohydride, as described in detail by Yan and Sohal (2000, Current Protocols Protein Science 144: 105-128). The isolated protein was counted in a Beckman scintillation counter and calculated using a standard curve. The measurements were performed at the University of Southern California, Los Angeles.

Male Fisher 344 rats [2] = assay: Urinary MDA by HPLC with spectrophotometry; conditions: for MDA (by HPLC with spectrophotometry): urine
Method: as §1
Indomethacin pretreatment: The indomethacin regimen used has been previously shown to inhibit COX activity in rats by 90% (dose of 5 mg/kg s.c. 24 hours, 12 hours, and 2 hours prior to the injection of CCl4) (Jackson, 1989, J. Pharmacol. Exp. Ther. 250: 9-21). An additional booster dose was injected 8 hours after the last injection of CCl4 for the measurements performed 16 hours after treatment with CCl4.
(§3) Meclofenamic acid pretreatment: Meclofenamic acid was injected at a dose of 5 mg/kg i.p. 12 h and 2 h prior to the injection of CCl4.
as §2
Urine sample preparation: The day prior to treatment, both experimental and control animals were placed in stainless steel metabolic cages especially designed for urine collection. For Experimental Example 2, animals were placed in metabolic cages immediately after the last injection of indomethacin or meclofenamic acid. Urine was collected (in dark vials) from the animals during the following intervals: 2 to 7 hours and 7 to 16 hours after CCl4 or canola oil (controls) treatment. Urine samples from indomethacin-pretreated rats were collected from 2 to 7 hours and 7 to 16 hours after the injection of CCl4, whereas samples from meclofenamic-acid-pretreated rats were collected only from 2 to 7 hours after the injection. All urine samples were immediately frozen on dry ice and stored at −70° C.
Urinary MDA was analyzed using high pressure liquid chromatography (HPLC). To 500 μl urine samples, 25 μl BHT and 750 μl 0.5% TBA solution were added, in this order. Samples were incubated at 60° C. for 60 minutes. After cooling, chloroform (750 μl) was added and mixed well. Following centrifugation, the aqueous layer was removed and used for HPLC analysis (column […]; mobile phase, 6:4(v/v) 0.04 M acetate buffer (pH 5.5)/MeOH; detection, 532 nm). The procedure was developed and performed by OXIS Research, Portland, Oreg.

Male Fisher 344 rats [3] = assay: Urinary free 8-iso-PGF2α by radioimmunoassay; conditions: both doses of CCl4, 7 h
Method: as §1, §3
as §2, with “N.C. […]” for “N.C.”
In Experimental Example 2, urine samples were also analyzed for free 8-iso-PGF2α, without any extraction, by radioimmunoassay (Basu, 1998, Prost. Leuk. Ess. Fatty Acids. 58: 319-325). […]

Male Fisher 344 rats [4] = assay: Liver enzyme activities, histopathology and other clinical parameters after CCl4; conditions: CCl4 120 and 1200 mg/kg; 2, 7, 16 h
Method: as §1, with “Rats were anesthetized with Nembutal (0.1 ml/100 g body weight) and 5 ml blood was removed from the dorsal aorta proximal to its bifurcation into the common iliac arteries.” left out
Serum enzyme activities of lactic acid dehydrogenase (LDH), alanine aminotransferase (ALT), alkaline phosphatase (ALP), aspartate aminotransferase (AST), sorbitol dehydrogenase (SDH), 5′-nucleotidase (5′-NT), serum concentration of total bile acids (TBA), and liver histopathology were performed, as described (Kadiiska et al., 2000, Free Radic. Biol. Med. 28:838-845). In addition, other clinical parameters such as serum albumin, total protein, total iron, total iron binding capacity, nitrite/nitrate, and urinary creatinine were determined, using standard techniques known to those in the art.

ClC(Cl)(Cl)Cl [CCl4, Carbon tetrachloride]
Protein carbonyls (by HPLC) (Male Fisher 344 rats [1]; CCl4 120 mg/kg i.p., 2 h): 0.40 nmol/mg protein | Protein carbonyls (by HPLC) (Male Fisher 344 rats [1]; CCl4 120 mg/kg i.p., 7 h): 0.42 nmol/mg protein | Protein carbonyls (by HPLC) (Male Fisher 344 rats [1]; CCl4 120 mg/kg i.p., 16 h): 0.51 nmol/mg protein | Protein carbonyls (by HPLC) (Male Fisher 344 rats [1]; CCl4 1200 mg/kg i.p., 2 h): 0.53 nmol/mg protein | Protein carbonyls (by HPLC) (Male Fisher 344 rats [1]; CCl4 1200 mg/kg i.p., 7 h): 0.59 nmol/mg protein | Protein carbonyls (by HPLC) (Male Fisher 344 rats [1]; CCl4 1200 mg/kg i.p., 16 h): 0.48 nmol/mg protein | MDA (by HPLC with spectrophotometry) (Male Fisher 344 rats [2]; CCl4 120 mg/kg i.p., 7 h): 2.01 nmol/mg creatinine | MDA (by HPLC with spectrophotometry) (Male Fisher 344 rats [2]; CCl4 120 mg/kg i.p., 16 h): 1.54 nmol/mg creatinine | MDA (by HPLC with spectrophotometry) (Male Fisher 344 rats [2]; CCl4 1200 mg/kg i.p., 7 h): 2.61 nmol/mg creatinine | MDA (by HPLC with spectrophotometry) (Male Fisher 344 rats [2]; CCl4 1200 mg/kg i.p., 16 h): 2.16 nmol/mg creatinine | increase of urinary MDA (Male Fisher 344 rats [2]; higher dose of CCl4, urine collected 7 hours after treatment): 3 fold | urinary free 8-iso-PGF2α (radioimmunoassay) (Male Fisher 344 rats [3]): dose-dependent increase | plasma iron concentrations and total iron binding capacity (Male Fisher 344 rats [4]): significantly increased only at the high dose at 16 hours | plasma nitrite/nitrate levels (Male Fisher 344 rats [4]): significantly increased only at the high dose at all three time points
